Experimental data from US20160113905A1, “Polymer composition and polymer material” (INDUSTRIAL TECHNOLOGY RESEARCH INSTITUTE, priority 2012, published 2016).
Where “and” joins values, the source holds several entries; their conditions need not be identical. Identical values can stand only once.

molecular target: T1, matrix metalloproteinase-9 (Homo sapiens, UniProt P14780); test: Inhibition test of matrix metalloproteinase-9 activity (fluorogenic substrate, activated pro-MMP-9)
T1 sequence (P14780 107-707 limits assumed, species assumed): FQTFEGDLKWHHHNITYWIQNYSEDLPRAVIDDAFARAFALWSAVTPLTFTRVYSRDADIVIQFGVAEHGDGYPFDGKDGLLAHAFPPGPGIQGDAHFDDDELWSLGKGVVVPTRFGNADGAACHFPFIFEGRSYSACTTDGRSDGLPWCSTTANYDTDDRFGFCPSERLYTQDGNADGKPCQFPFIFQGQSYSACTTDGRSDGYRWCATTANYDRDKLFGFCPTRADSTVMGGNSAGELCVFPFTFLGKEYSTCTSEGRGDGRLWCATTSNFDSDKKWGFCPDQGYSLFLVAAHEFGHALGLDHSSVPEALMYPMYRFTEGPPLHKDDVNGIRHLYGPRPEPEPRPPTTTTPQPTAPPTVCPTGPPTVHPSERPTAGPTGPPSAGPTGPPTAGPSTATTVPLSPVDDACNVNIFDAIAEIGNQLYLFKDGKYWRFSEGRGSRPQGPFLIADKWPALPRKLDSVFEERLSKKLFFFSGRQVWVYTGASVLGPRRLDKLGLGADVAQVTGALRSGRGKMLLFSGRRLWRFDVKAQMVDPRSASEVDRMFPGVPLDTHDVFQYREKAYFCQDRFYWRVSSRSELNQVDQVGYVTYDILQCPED
Experimental: Step 1: Activation of Pro-Matrix Metalloproteinase-9
100 nM APMA (final concentration 1 M) as added to a 10 μg/ml of pro-matrix metalloproteinase-9 solution (R&D), and reacted in a 37° C. incubator for 2 hours to convert pro matrix metalloproteinase-9 to activated pro-matrix metalloproteinase-9
The activated pro-matrix metalloproteinase-9 was diluted with matrix metalloproteinase-9 activity analysis buffer (50 mM Tris, 10 mM CaCl2, 150 mM NaCl, 0.05% Brij-35(w/v), pH 7.5) to a concentration of 10 ng/ml. Activated pro-matrix metalloproteinase-9 was added to each test sample and placed in a 37° C. incubator for reaction for 2 or 24 hours. The negative control group contained no activated pro-matrix metalloproteinase-9 solution to test the response of the sample, and positive control added metalloproteinase-9 activity inhibitor, 1,10-Phenanthroline (1,10-PT) (final concentration: 0.1 mM), to the activated pro-matrix metalloproteinase-9 solution.
Step 3: Analysis for Matrix Metalloproteinase-9
The activated pro-matrix metalloproteinase-9 solution after being reacted with the material was taken in a 96-well black plate. Equal volume of substrate for matrix metalloproteinase-9 was added to the 96-well black plate and reacted in a 37° C. incubator for 0.5-1 hour, and then the fluorescence (Ex/Em=320/405 nm) of the reaction was determined by a high sensitivity fluorescence reader (Flexstation3).

IC50	Compound
10.3 mM	CC(C)(C)OC(=O)N[C@@H](Cc1c[nH]cn1)C(=O)O [BocHis, Boc-histidine, reference compound]

molecular target: T1, matrix metalloproteinase-9; test: not given

inhibition	Compound
26.2% and 22.9%	histidine grafted-poly(ethylene vinyl-co-alcohol) derivative [EVOH-g-BocHis]

molecular target: T1, matrix metalloproteinase-9; test: not given; remark: another data set of the same source

Compound	inhibition
histidine grafted-polyvinyl alcohol derivative [Lot 2]	41%
histidine grafted-hydroxypropyl methylcellulose derivative [Lot 5]	33.2%
CC(C)(C)OC(=O)N[C@@H](Cc1c[nH]cn1)C(=O)O [BocHis, Boc-histidine, reference compound]	76.8%
histidine grafted-poly(ethylene vinyl-co-alcohol) derivative [Lot 3]	43.7%
histidine grafted-poly(ethylene vinyl-co-alcohol) derivative [Lot 4]	38.2%
histidine grafted-hydroxypropyl methylcellulose derivative [Lot 7]	36.4%
histidine grafted-hydroxypropyl methylcellulose derivative [Lot 6]	42.4% and 37.3%
